Data as given in US7981859B2, “Glycopeptide composition with improved antibiotic activity” (Xellia Pharmaceuticals APS, priority 2003, dated 2011).

Tests used:
[1] = system: Staphylococcus aureus ATCC 6538; experiment: Microbiological potency by agar diffusion; format: cell-based
Protocol: Accordingly, in one embodiment a Teicoplanin composition as described herein, has a higher antibiotic activity than a corresponding Teicoplanin composition that has a %(mg TA3)/(mg TA3+TA2) of 6.5%, where the antibiotic activity is measured by a microbiological agar diffusion assay using Staphylococcus aureus ATCC 6538 as test strain and the measured potential potency (IU per mg TA2+TA3/g composition) is used to calculate the antibiotic activity.
Procedure for the Determination of Microbiological Potency by Agar Diffusion
(§1) Potency of Teicoplanin TA2, TA3-1 alone or in combination was determined by agar diffusion assays. Furthermore, the antimicrobial effect of pure and spiked products was investigated through the determination of the minimum inhibitory concentration (MIC) by a modified “MIC” test in micro titer trays.
The potency test is carried out according to the assay described below. […]
The results are analyzed by reading the zone diameters carefully with a 10× magnification and a precision of 0.1 mm. […]
(§2) Potency of teicoplanin TA2, TA3-1 alone or in combinations was determined by agar diffusion assays as described in example 1. Modified MIC-values in microtitre trays were determined as described in example 1.

[2] = system: S. aureus ATCC 6538; experiment: Modified "MIC" test in micro titer trays (liquid medium); format: cell-based, Staphylococcus aureus
Protocol: as §1
Pure TA3-1, (Teicoplanin Material B 96% TA2-X, 4% TA3-1) and mixtures thereof were used. The test strain used was S. aureus ATCC 6538 in final concentrations of 5×10^5/ml and 5×10^4/ml respectively. The test was carried out in micro titer trays as a modification of an ordinary MIC test. Instead of using two-fold dilutions, 0.40-1.20 μg/ml with 0.20 μl divisions and 1.0-4.0 μl/ml with 1.0 μl divisions was used. The trays were incubated at 37° C. The wells were examined after 24 hours and any visible growth was noted.
In order to strengthen the evidence some experiments were performed with a modified antimicrobial analysis of Teicoplanin, spiked with different amounts of TA3-1. It was carried out in liquid medium in contrast to the agar diffusion tests and determined the MIC values. The results are summarized in Table 4, (“MIC”-values of Teicoplanin and/or TA3-1 on S. aureus ATCC6538).
as §2

Compound: CC(=O)N[C@H]1[C@H](O[C@@H]2c3ccc(c(Cl)c3)Oc3cc4cc(c3O)Oc3ccc(cc3Cl)C[C@H]3NC(=O)[C@H](N)c5ccc(O)c(c5)Oc5cc(O)cc(c5)[C@H](NC3=O)C(=O)N[C@H]4C(=O)N[C@H]3C(=O)N[C@@H]2C(=O)N[C@H](C(=O)O)c2cc(O)cc(O[C@H]4O[C@H](CO)[C@@H](O)[C@H](O)[C@@H]4O)c2-c2cc3ccc2O)O[C@H](CO)[C@@H](O)[C@@H]1O [TA3-1, Teicoplanin A3-1]
- Potency IU/mg powder ([1]; Example 1, agar diffusion, 2-point assay, potency of the powder as such): 570 IU/mg powder
- potency by agar diffusion (IU/mg powder) compared with Targocid alone ([1]; Example 2, FIG. 5, Targocid/TA3-1 solutions mixed at different mass TA3-1%): much lower potency
- MIC value relative to Targocid alone (times higher) ([2]; Example 2, FIG. 6, MIC in μg powder/ml solution): 4-5 times
- MIC (μg/ml) 5 × 10^4/ml S.aureus ([2]; inoculum 5 × 10^4/ml, 37° C., read after 24 hours, lowest concentration without visible growth): 2–3 μg/ml
- MIC (μg/ml) 5 × 10^5/ml S.aureus ([2]; inoculum 5 × 10^5/ml, 37° C., read after 24 hours, lowest concentration without visible growth): 2–3 μg/ml
